According to PMC4254045 (Bioorganic & medicinal chemistry, 2014):
“Also recorded” adds a separate entry of the source. Values belong to the molecule of their own block, whether it stands above or below them. Square brackets hold non-standard residues; d marks the D form. Peptide text beside a SMILES is read from it. dPhe(4-guanidino) = N=C(N)Nc1ccc(C[C@@H](N)C(=O)O)cc1; Phe(4-guanidino) = N=C(N)Nc1ccc(C[C@H](N)C(=O)O)cc1

How the values were obtained:
[1] = biological target: T1, human MrgX1 (Homo sapiens, UniProt Q96LB2); experiment: FLIPR agonist assay, HEK293 cells stably transfected with human MrgX1; assay type: cell-based
[2] = biological target: T2, mouse MrgC11 (Mus musculus, UniProt Q8CIP3); experiment: FLIPR agonist assay, transiently transfected HEK293 or KNRK cells, mouse MrgC11; assay type: cell-based; settings: for agonist activity at mouse MrgC11 (in words): full agonism relative to BAM8-22
T2 sequence (Q8CIP3 1-322): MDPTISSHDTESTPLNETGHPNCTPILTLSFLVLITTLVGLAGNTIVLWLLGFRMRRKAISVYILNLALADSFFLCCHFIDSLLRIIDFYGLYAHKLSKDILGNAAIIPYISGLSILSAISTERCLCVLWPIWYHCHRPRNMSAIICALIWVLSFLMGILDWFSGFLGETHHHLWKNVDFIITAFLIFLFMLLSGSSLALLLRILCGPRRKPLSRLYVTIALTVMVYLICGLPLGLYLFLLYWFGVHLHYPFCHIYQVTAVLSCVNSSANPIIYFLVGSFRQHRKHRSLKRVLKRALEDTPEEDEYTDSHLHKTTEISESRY

[3] = biological target: T3, rat MrgC (Rattus norvegicus, UniProt Q8R4G1); experiment: FLIPR agonist assay, transiently transfected HEK293 or KNRK cells, rat MrgC; assay type: cell-based
T3 sequence (Q8R4G1 1-323): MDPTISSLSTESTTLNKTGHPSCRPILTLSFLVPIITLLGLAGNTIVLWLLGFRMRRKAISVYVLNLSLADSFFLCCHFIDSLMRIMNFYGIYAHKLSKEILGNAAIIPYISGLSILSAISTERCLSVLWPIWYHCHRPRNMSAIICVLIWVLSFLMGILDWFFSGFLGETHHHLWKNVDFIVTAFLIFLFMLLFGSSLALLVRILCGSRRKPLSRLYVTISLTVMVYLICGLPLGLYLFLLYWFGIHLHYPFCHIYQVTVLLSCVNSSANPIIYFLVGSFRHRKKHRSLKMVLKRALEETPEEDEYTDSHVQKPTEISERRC

[4] = system: mice; settings: cited from earlier work
[5] = biological target: T1, human MrgX1; experiment: Antagonist activity in human MrgX1 using BAM8-22; assay type: cell-based; settings: human MrgX1, BAM8-22 (200 nM) as agonist
[6] = system: rats; settings: cited from earlier work
[7] = biological target: T2, mouse MrgC11; settings: cited from earlier work
[8] = highest concentration tested due to limited solubility
[9] = FLIPR, transiently transfected HEK293 or KNRK cells, average of at least three independent experiments ± SD

T1 sequence (Q96LB2 whole entry): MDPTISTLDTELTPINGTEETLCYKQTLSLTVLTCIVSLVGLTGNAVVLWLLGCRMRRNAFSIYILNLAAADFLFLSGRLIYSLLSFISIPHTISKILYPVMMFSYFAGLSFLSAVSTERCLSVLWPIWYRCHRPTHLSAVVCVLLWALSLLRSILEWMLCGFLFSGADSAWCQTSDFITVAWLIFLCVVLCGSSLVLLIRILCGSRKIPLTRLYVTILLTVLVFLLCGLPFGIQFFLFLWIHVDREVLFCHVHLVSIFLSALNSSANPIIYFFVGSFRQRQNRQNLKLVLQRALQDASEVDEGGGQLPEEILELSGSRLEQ

agonist activity at human MrgX1 (in words) ([1]; FLIPR): selectively activated human MrgX1
agonist activity at mouse MrgC11 at concentrations up to 2 μM [2, 8]: no measurable agonist activity
agonist activity at rat MrgC at concentrations up to 2 μM [3, 8]: no measurable agonist activity
Molecule: COc1ccc(-c2ccc(C(=O)Nc3cccc(Cn4ncc(N5CCNCC5)cc4=O)c3C)cc2)cn1 [1c, reference compound]

EC50 [1]: > 100 µM
EC50 [3]: > 100 µM
Molecule: N=C(N)Nc1cccc(C(N)C(=O)N[C@@H](Cc2ccccc2)C(N)=O)c1 (some centres unmarked) [20a]
agonist activity at rat MrgC (in words) ([3]; FLIPR): failed to show agonist activity; also recorded: Neither of the analogs showed agonist activity

pEC50 Mouse MrgC11 [2, 9]: 4.5 ± 0.1
pEC50 Rat MrgC [3, 9]: <4
Molecule: N=C(N)Nc1cccc(C(N)C(=O)N[C@@H](Cc2ccccc2)C(N)=O)c1 (some centres unmarked) [20b]
agonist activity at rat MrgC (in words) ([3]; FLIPR): failed to show agonist activity; also recorded: Neither of the analogs showed agonist activity

agonist activity at mouse MrgC11 (in words) ([2]; FLIPR): exhibited agonist activity
agonist activity at rat MrgC (in words) ([3]; FLIPR): exhibited agonist activity
Molecule: N=C(N)Nc1ccc(C[C@H](N)C(=O)N[C@@H](Cc2ccccc2)C(N)=O)cc1 [24a, (2S)-2-amino-N-((2S)-1-amino-1-oxo-3-phenylpropan-2-yl)-3-(4-guanidinophenyl)propanamide bis(trifluoroacetate)] (H-[Phe(4-guanidino)]-Phe-NH2)

agonist activity at mouse MrgC11 (in words) ([2]; FLIPR): exhibited agonist activity
fold more potent than 24a at mouse MrgC11 ([2]; relative to diastereomer 24a): ~10 fold
agonist activity at rat MrgC (in words) ([3]; FLIPR): exhibited agonist activity
fold more potent than 24a at rat MrgC ([3]; relative to diastereomer 24a): ~100 fold
Molecule: N=C(N)Nc1ccc(C[C@@H](N)C(=O)N[C@@H](Cc2ccccc2)C(N)=O)cc1 [24b, (2R)-2-amino-N-((2S)-1-amino-1-oxo-3-phenylpropan-2-yl)-3-(4-guanidinophenyl)propanamide bis(trifluoroacetate)] (H-[dPhe(4-guanidino)]-Phe-NH2)
effect on neuropathic pain [4]: attenuated neuropathic pain
antagonist activity at concentrations up to 200 μM [5]: Neither Arg-Phe-NH2 nor 24b, however, showed any antagonist activity
effect on neuropathic pain [6]: attenuated neuropathic pain

agonist activity at rat MrgC (in words) ([3]; FLIPR): failed to show agonist activity
Molecule: N=C(N)N[C@@H]1CN[C@H](C(=O)N[C@@H](Cc2ccccc2)C(N)=O)C1 [compound 12, (2S,4S)-N-((S)-1-amino-1-oxo-3-phenylpropan-2-yl)-4-guanidinopyrrolidine-2-carboxamide bis(trifluoroacetate)]

agonist activity at rat MrgC (in words) ([3]; FLIPR): failed to show agonist activity
Molecule: N=C(N)NC[C@@H]1CN[C@H](C(=O)N[C@@H](Cc2ccccc2)C(N)=O)C1 [compound 16, (2S,4S)-N-((S)-1-amino-1-oxo-3-phenylpropan-2-yl)-4-(guanidinomethyl)pyrrolidine-2-carboxamide bis(trifluoroacetate)]

Molecule: Arg-Phe
EC50 for activating MrgC11 (in words) [7]: submicromolar

Molecule: Phe-Met-Arg-Phe-NH2
MrgC11 agonist activity (in words) [7]: submicromolar

Molecule: Phe-Met-D-Arg-Phe-NH2
MrgC11 agonist activity (in words) [7]: inactive
